Laboratory results as given in the supplement of paper PMC10307832.

Columns and labels:
Experiment in all cases: relative viability (nuclei count vs DMSO), 5 days (fraction); higher = more cells survive
Idelalisib + Pictilisib = compound: CC[C@H](Nc1ncnc2[nH]cnc12)c1nc2cccc(F)c2c(=O)n1-c1ccccc1 [Idelalisib] + CS(=O)(=O)N1CCN(Cc2cc3nc(-c4cccc5[nH]ncc45)nc(N4CCOCC4)c3s2)CC1 [Pictilisib] (partner 1 µM)
Outline: (§1)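 Lung cancer cell lines were pin-tool dosed in 1536-well plates on the day after seeding, with either a lone drug or a fixed anchor-drug dose plus five library-drug doses (not always all listed) in √10 steps. Nuclei were counted on 4× images after 5 days. Relative viability is the ratio of treated-well to vehicle-well nuclei counts, with each value a median of duplicate plates.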

Pemetrexed + Lapatinib = compound: Nc1nc2[nH]cc(CCc3ccc(C(=O)N[C@@H](CCC(=O)O)C(=O)O)cc3)c2c(=O)[nH]1 [Pemetrexed] + CS(=O)(=O)CCNCc1ccc(-c2ccc3ncnc(Nc4ccc(OCc5cccc(F)c5)c(Cl)c4)c3c2)o1 [Lapatinib] (partner 2 µM)
Outline: as §1

Pemetrexed + Decitabine = compound: Nc1nc2[nH]cc(CCc3ccc(C(=O)N[C@@H](CCC(=O)O)C(=O)O)cc3)c2c(=O)[nH]1 [Pemetrexed] + Nc1ncn([C@H]2C[C@H](O)[C@@H](CO)O2)c(=O)n1 [Decitabine] (partner 2 µM)
Outline: as §1

Idelalisib + OSI-027 = compound: CC[C@H](Nc1ncnc2[nH]cnc12)c1nc2cccc(F)c2c(=O)n1-c1ccccc1 [Idelalisib] + COc1cccc2cc(-c3nc([C@H]4CC[C@H](C(=O)O)CC4)n4ncnc(N)c34)[nH]c12 [OSI-027] (partner 0.5 µM)
Outline: as §1

Cell Line | relative viability (Idelalisib + Pictilisib; first compound 0.04 µM) | relative viability (Idelalisib + Pictilisib; first compound 0.1265 µM) | relative viability (Idelalisib + Pictilisib; first compound 0.4 µM) | relative viability (Idelalisib + Pictilisib; first compound 1.265 µM) | relative viability (Idelalisib + Pictilisib; first compound 4 µM) | relative viability (Pemetrexed + Lapatinib; first compound 0.002 µM) | relative viability (Pemetrexed + Lapatinib; first compound 0.006325 µM) | relative viability (Pemetrexed + Lapatinib; first compound 0.02 µM) | relative viability (Pemetrexed + Lapatinib; first compound 0.06325 µM) | relative viability (Pemetrexed + Lapatinib; first compound 0.2 µM) | relative viability (Pemetrexed + Decitabine; first compound 0.002 µM) | relative viability (Pemetrexed + Decitabine; first compound 0.006325 µM) | relative viability (Pemetrexed + Decitabine; first compound 0.02 µM) | relative viability (Pemetrexed + Decitabine; first compound 0.06325 µM) | relative viability (Pemetrexed + Decitabine; first compound 0.2 µM) | relative viability (Idelalisib + OSI-027; first compound 0.04 µM) | relative viability (Idelalisib + OSI-027; first compound 0.1265 µM) | relative viability (Idelalisib + OSI-027; first compound 0.4 µM) | relative viability (Idelalisib + OSI-027; first compound 1.265 µM) | relative viability (Idelalisib + OSI-027; first compound 4 µM)
LXF-289 | 0.894 | 0.78 | 0.722 | 0.873 | 0.745 | 0.822 | 0.862 | 0.949 | 0.899 | 0.874 | 0.363 | 0.393 | 0.38 | 0.403 | 0.404 | 0.879 | 0.782 | 0.632 | 0.813 | 0.764
NCI-H358 | 0.359 | 0.355 | 0.281 | 0.342 | 0.355 | 0.4 | 0.4 | 0.441 | 0.311 | 0.276 | 0.177 | 0.208 | 0.214 | 0.155 | 0.127 | 0.773 | 0.875 | 0.554 | 0.695 | 0.72
NCI-H1993 | 0.804 | 0.8 | 0.807 | 0.896 | 0.803 | 0.863 | 0.887 | 0.869 | 0.754 | 0.665 | 0.619 | 0.661 | 0.622 | 0.576 | 0.461 | 0.575 | 0.53 | 0.512 | 0.584 | 0.552
NCI-H727 | 0.385 | 0.66 | 0.312 | 0.773 | 0.476 | 0.802 | 0.825 | 0.634 | 0.844 | 0.773 | 0.922 | 0.796 | 0.835 | 0.792 | 0.865 | 0.749 | 0.708 | 0.45 | 0.562 | 0.52
LOU-NH91 | 0.532 | 0.478 | 0.509 | 0.504 | 0.575 | 0.799 | 0.792 | 0.734 | 0.58 | 0.514 | 0.811 | 0.78 | 0.798 | 0.66 | 0.578 | 0.776 | 0.732 | 0.687 | 0.517 | 0.708
NCI-H1975 | 0.324 | 0.295 | 0.249 | 0.316 | 0.271 | – | 0.885 | 0.906 | 0.78 | 0.423 | 0.322 | 0.403 | 0.378 | 0.291 | 0.223 | 0.819 | 0.764 | 0.61 | 0.917 | 0.429
PC-3 [JPC-3] | 0.895 | 0.749 | 0.73 | 0.737 | 0.601 | 0.423 | 0.502 | 0.501 | 0.471 | 0.451 | 0.765 | 0.845 | 0.956 | 0.837 | 0.857 | 0.712 | 0.747 | 0.639 | 0.694 | 0.571
NCI-H2126 | 0.525 | 0.53 | 0.404 | 0.515 | 0.521 | 0.75 | 0.747 | 0.789 | 0.747 | 0.739 | 0.55 | 0.588 | 0.569 | 0.608 | 0.567 | 0.67 | 0.678 | 0.462 | 0.732 | 0.704
LU99A | 0.324 | 0.339 | 0.263 | 0.385 | 0.279 | 0.926 | 0.909 | 0.991 | 0.97 | 0.744 | 0.802 | 0.753 | 0.947 | 0.865 | 0.887 | 0.302 | 0.322 | 0.242 | 0.298 | 0.305
NCI-H23 | 0.689 | 0.489 | 0.381 | 0.451 | 0.462 | 0.968 | 0.882 | 1.26 | 1.04 | 0.919 | 0.287 | 0.307 | 0.322 | 0.325 | 0.318 | 0.614 | 0.618 | 0.216 | – | 0.537
PC-14 | 0.765 | 0.788 | 0.705 | 0.688 | 0.506 | 0.194 | 0.271 | 0.38 | 0.291 | 0.223 | 0.211 | 0.217 | 0.301 | 0.0896 | 0.0739 | 0.946 | 1.05 | 0.721 | 0.338 | 0.754
HCC-44 | 0.679 | 0.646 | 0.526 | 0.59 | 0.591 | 0.928 | 1 | 1.03 | 1.02 | 0.874 | 0.854 | 0.909 | 1.02 | 0.922 | 0.905 | 0.474 | 0.54 | 0.437 | 0.604 | 0.5
A-427 | 0.871 | 0.789 | 0.826 | 0.743 | 0.724 | 0.974 | 1.06 | 1.09 | 1.14 | 0.819 | 0.585 | 0.537 | 0.545 | 0.572 | 0.544 | 0.443 | 0.488 | 0.332 | 0.503 | 0.469
